Values joined by “and” are separate entries in the source; they are usually repeats but may differ in a detail not shown here. Equal entries are not always repeated. Marks after values point to notes of the source that are not given here.
Columns and labels:
[1] = Solubility at 50° C. in common SEDDS excipients by visual inspection; type: physicochemical
[2] = Effect of water content on solubility (formulations F1-F3); type: physicochemical
Method: Increasing amounts of PVP and Poloxamer were added to compositions F1-F3 to inhibit rapid precipitation upon dilution in water.
The solutions were then cooled to ambient room temperature and mixed for ˜4 hours prior to filtering and being evaluated by an assay.

[3] = Solubility in injection vehicle compositions; type: physicochemical; conditions: 40% PEG-400, 20% Propylene glycol, 5% Ethanol, 35% water
Description: Multiple vehicle compositions were investigated, resulting in a clear dosing solution or suspension at the time of the preparation or shortly after the preparation. Vehicles tested included 55% Polyethylene glycol 400 (PEG-400) in water, 41% PEG-400, 12% Ethanol, 47% water, 45% PEG-400, 10% DMSO, 45% Water, 31% PEG-400, 31% Tetraglycol, 15% Caprylocaproyl Polyoxylglycerides (Labrasol ALF), 23% water, 30% PEG-400, 10% N-Methyl Pyrrolidone, 10% DMSO, 50% water, 25% PEG-400, 10% DMSO, 20% Tetraglycol, 45% water, 20% Ethanol in water, 20% Hydroxypropyl-β-Cyclodextrin in water, 11% DMSO, 22% PEG-400, 22% Tetraglycol, 44% water, 44% PEG-400, 0.4% Poloxamer-188, 22% N-Methyl Pyrrolidone, 33% water, and 20% PEG-400, 15% Hydroxypropyl-β-Cyclodextrin in water.
After filtration with a 0.22 μm PVDF filter, the sample stayed clear for up to 7 days. The compositions selected for animal studies are described in Table 67 and Table 68.

physchem = experiment: physchem
Description: Crucial to the efficacy of any treatment by a pharmaceutical composition is the overall systemic bioavailability of the pharmaceutical composition used for said treatment. […] LogP is one measure of lipophyilicity, and is the octal:water partition coefficient expressed as a log ratio of molecule in octanol relative to water after mixing.

[4] = Solubility in 1:1 mixture of Gelucire 44/14 and Span 80 (tablet solubilizer); type: physicochemical
Method: After successful completion of the dry blend tablet formulation, efforts were made to attempt to enhance solubilization of the drug. Upon successful creation of the tablet prototype batch A, the tablet prototype batch B was developed wherein Bumetanide Dibenzylamide solubilizers were incorporated directly into the dry blend tablet formulation. […] The 1:1 ratio of Lauroyl Polyoxyl-32 Glycerides (Gelucire 44/14), to Sorbitan Ester (Span 80), was determined by combined melting point, taste, viscosity, and solubilizing ability. The ratio provided a semi-solid, which may be liquefied upon application of low heat. […] This mixture was kept under constant stirring to ensure complete even dispersal of ingredients. Continuing under constant heating and mixing, Neusilin US2 (Magnesium Aluminometasilicate) was slowly added to adsorb the viscous mixture onto its particles rough surface. Upon complete adsorption the heat was removed with continued mixing until room temperature was reached. The cooled, hot-melt granulation was then sieved and blended with sieved Polyplasdone XL (Super Disintegrate), Cabosil M5P (fumed silica), and Citric Acid Monohydrate, and Magnesium Stearate. Table 58 illustrates the formulation employed for a sublingual tablet prototype batch B, which was utilized for canine studies. […]

[5] = Pharmacokinetic profile after single intravenous or oral gavage dose in rats; conditions: for C0: back predicted to time 0
Method: Animals were dosed via oral gavage or intravenous injection once on Day 1 at a volume of 5 mL/kg for Group 1 and 10 mL/kg for Group 2. The vehicle was 40% (v/v) Polyethylene Glycol 400 (PEG400), 20% (v/v) Propylene Glycol, 5% (v/v) Ethanol, and 35% (v/v) water for Group 1 and the vehicle was 0.5% (w/v) Carboxymethylcellulose (medium viscosity) in reverse osmosis water for Group 2.
Blood samples (approximately 0.5 mL) were collected from nonfasted toxicokinetic animals via a jugular vein on Day 1 of the dosing phase, as indicated in Table 18
Blood was collected into tubes containing potassium (K2) EDTA as the anticoagulant. Samples were maintained on wet ice and were centrifuged within 30 minutes of collection. Plasma was harvested and stored on dry ice until placed in a freezer, set to maintain −60 to −80° C., until shipped on dry ice to Origin Bioanalytical Laboratory, Inc. for analysis.
Pharmacokinetic parameters were derived using non-compartmental methods employing Phoenix WinNonlin® version 8.1 (Pharsight Corp; St. Louis, MO). The PK parameters defined previously in Table 10 were calculated by non-compartmental methods using composite plasma concentration-time data obtained from 3 rats/sex/time point/dose. The area under the concentration-time curve from zero time (pre-dose) to the last time point was calculated by a combination of linear and logarithmic trapezoidal methods. The linear trapezoidal method was employed for all incremental trapezoids arising from increasing concentrations and the logarithmic trapezoidal method was used for those arising from decreasing concentrations (linear up/log down method). Nominal blood sampling times were used in the analysis. […] Individual BQL results were set to zero for all calculations. No animals were excluded from the analysis.

[6] = male, Hsd: Sprague Dawley, rat, plasma, iv, 10 mg/kg
[7] = rats, oral 30 mg/kg vs IV 10 mg/kg

## CCCCNc1cc(C(=O)N(Cc2ccccc2)Cc2ccccc2)cc(S(N)(=O)=O)c1Oc1ccccc1 [Bumetanide Dibenzylamide, N, N-dibenzyl 3-aminosulfonyl-5-butylamino-4-phenoxybenzamide]
[1]; Captex 300 (Caprylic/Capric Triglyceride, Medium Chain Triglyceride), 50° C.
  Bumetanide Dibenzylamide, in solution: <1* mg/ml
[1]; Drakeol 6VR LT (Mineral Oil), 50° C.
  Bumetanide Dibenzylamide, in solution: <1* mg/ml
[1]; Kolliphor EL (Polyoxyl 35 castor oil), 50° C.
  Bumetanide Dibenzylamide, in solution: 13.5 mg/mL
[1]; Labrafac Lipophile WL 1349 (Medium Chain Triglyceride), 50° C.
  Bumetanide Dibenzylamide, in solution: 3 mg/mL
[1]; Labrafil M 1944CS (Oleoyl polyoxyl 1-6 glycerides), 50° C.
  Bumetanide Dibenzylamide, in solution: 4.5 mg/mL
[1]; Labrasol ALF (Caprylocaproyl Polyoxylglycerides), 50° C.
  Bumetanide Dibenzylamide, in solution: 63 mg/mL
[1]; Lauroyl Plyoxyl-32 Glycerides (Gelucire 44/14), 50° C.
  Bumetanide Dibenzylamide, in solution: 106 mg/mL
[1]; Oleic Acid, 50° C.
  Bumetanide Dibenzylamide, in solution: <1* mg/ml
[1]; Oleyl Alcohol, 50° C.
  Bumetanide Dibenzylamide, in solution: <1* mg/ml
[1]; Polyethylene Glycol 400, 50° C.
  Bumetanide Dibenzylamide, in solution: 8.6 mg/mL
[1]; Propylene Glycol, 50° C.
  Bumetanide Dibenzylamide, in solution: 2 mg/mL
[1]; Sorbitan Ester (Span 80), 50° C.
  Bumetanide Dibenzylamide, in solution: 250 mg/mL
[1]; Soybean Oil, 50° C.
  Bumetanide Dibenzylamide, in solution: 2 mg/mL
[2]; rectal gel, about 20% water
  maximum concentration of Bumetanide Dibenzylamide: about 2.4%
[2]; rectal paste, no water
  maximum concentration of Bumetanide Dibenzylamide: about 4.16%
[3]; 0.22 μm PVDF filter
  time sample stayed clear after filtration: up to 7 days
[3]; room temperature
  time as clear solution: at least 3 hours
physchem
  logP: ~5.9
[4]
  solubility: approximately 500 mg/g
[5]; male rats, IV bolus 10 mg/kg, 1 h, 10 mg/kg
  Plasma Bumetanide Dibenzylamide concentration: 1040 ng/mL
[5]; [6]
  AUC(0-inf): 3730 ng·h/mL
  Vd: 10.1 L/kg
  clearance: 44.7 mL/min/kg
[5]; male, Hsd: Sprague Dawley, rat, plasma, iv, 10 mg/kg, C0, rats, IV bolus 10 mg/kg
  C0: 2780 ng/mL
[5]; male, Hsd: Sprague Dawley, rat, plasma, iv, 10 mg/kg, Plasma Bumetanide Dibenzylamide concentration, male rats, IV bolus 10 mg/kg, 0.08 h
  concentration at 0.08 h: 2510 ng/mL
[5]; male, Hsd: Sprague Dawley, rat, plasma, po, 30 mg/kg, Plasma Bumetanide Dibenzylamide concentration, male rats, oral 30 mg/kg, 4 h
  concentration at 4 h: 4.56 ng/mL
[5]; male, Sprague Dawley, rat, plasma, iv, 10 mg/kg, Plasma Bumetanide Dibenzylamide concentration, male rats, IV bolus 10 mg/kg, 1 h
  concentration at 1 h: 993 ng/mL
[5]; rats, IV bolus 10 mg/kg, 10 mg/kg
  C0: 2720 ng/mL
[5]; [7]
  Fabs (%): 0.34% and 0.32%
  Fabs (ratio): 0.0034 and 0.0032

Source: US20250120932A1, “PHARMACEUTICAL COMPOSITION” (NEUROPRO THERAPEUTICS, INC., priority 2021, published 2025)
